Data reported in ChEMBL document CHEMBL1124038, “Dehydro keto methylene and keto methylene analogues of substance P. Synthesis and biological activity” (J Med Chem, 1988).
Numbered stars: 1 amine (or outer) side, 2 acyl side, 3 side chain; on linkers, the order of the positions; unused ones are H or OH. Square brackets hold non-standard residues; d marks the D form. Peptide text beside a SMILES is read from it. X1 = CC(C)C[C@H](CC(=O)CN[*:1])C(=O)[*:2]; pGlu = O=C1CC[C@@H](C(=O)O)N1

Organism: Rattus norvegicus
Assay: Inhibition of the degradation of [125IBH]-SP6-11 in rat hypothalamus preparations
Format: functional

SMILES | IC50
CCOC(=O)/C(=C\c1ccccc1)CC(=O)[C@H](Cc1ccccc1)NC(=O)c1ccccc1 | > 200 µM
O=C1CC[C@H](C(=O)N[C@@H](Cc2ccccc2)C(=O)C/C(=C/c2ccccc2)C(=O)O)N1 | > 200 µM
COC(=O)CCC(=O)[C@@H](N)Cc1ccccc1 | > 200 µM
CCOC(=O)/C(=C\c1ccccc1)CC(=O)[C@@H](N)Cc1ccccc1 | > 200 µM

Second part, the compound after the results:

IC50 | SMILES
1.8 µM | CSCC[C@H](NC(=O)[C@H](CC(C)C)NC(=O)CNC(=O)/C(=C\c1ccccc1)CC(=O)[C@H](Cc1ccccc1)NC(=O)[C@H]1CCC(=O)N1)C(N)=O
50 µM | CSCC[C@H](NC(=O)[C@@H](CC(=O)CNC(=O)[C@H](Cc1ccccc1)NC(=O)[C@H](Cc1ccccc1)NC(=O)[C@@H]1CCC(=O)N1)CC(C)C)C(N)=O ([pGlu]FF[X1]M-NH2)
> 200 µM | COC(=O)CCC(=O)[C@H](Cc1ccccc1)NC(=O)[C@H](Cc1ccccc1)NC(=O)[C@H]1CCC(=O)N1
> 200 µM | CCOC(=O)/C(=C\c1ccccc1)CC(=O)[C@H](Cc1ccccc1)NC(=O)[C@H]1CCC(=O)N1
30 µM | CSCC[C@H](NC(=O)[C@H](CC(C)C)NC(=O)CNC(=O)[C@@H](CC(=O)[C@H](Cc1ccccc1)NC(=O)[C@H]1CCC(=O)N1)Cc1ccccc1)C(N)=O
